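How tested: cells in 96-well plates exposed to compound for 48 hours at five concentrations. GI50 = concentration required for 50% inhibition of growth. TGI: total growth inhibition.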
How the values were obtained:
Assay in all cases: NCI tumour cell line growth inhibition, 48 h
SK-MEL-2 melanoma = tested on: SK-MEL-2 melanoma
UO-31 renal = tested on: UO-31 renal
A498 renal = tested on: A498 renal
HOP-92 NSCLC = tested on: HOP-92 NSCLC
IGROV1 ovarian = tested on: IGROV1 ovarian
NCI/ADR-RES ovarian = tested on: NCI/ADR-RES ovarian
HCC-2998 colon = tested on: HCC-2998 colon
BT-549 breast = tested on: BT-549 breast
PC-3 prostate = tested on: PC-3 prostate
SK-MEL-5 melanoma = tested on: SK-MEL-5 melanoma
MDA-MB-231 breast = tested on: MDA-MB-231 breast
MALME-3M melanoma = tested on: MALME-3M melanoma
SF-268 CNS = tested on: SF-268 CNS
UACC-62 melanoma = tested on: UACC-62 melanoma
786-0 renal = tested on: 786-0 renal
RPMI-8226 leukemia = tested on: RPMI-8226 leukemia
KM12 colon = tested on: KM12 colon
MDA-MB-435 = tested on: MDA-MB-435
OVCAR-4 ovarian = tested on: OVCAR-4 ovarian
TK-10 renal = tested on: TK-10 renal
OVCAR-8 ovarian = tested on: OVCAR-8 ovarian
MCF7 breast = tested on: MCF7 breast
HT29 colon = tested on: HT29 colon
SK-OV-3 ovarian = tested on: SK-OV-3 ovarian
T-47D breast = tested on: T-47D breast
COLO 205 colon = tested on: COLO 205 colon
M14 melanoma = tested on: M14 melanoma
ACHN renal = tested on: ACHN renal
OVCAR-3 ovarian = tested on: OVCAR-3 ovarian
SK-MEL-28 melanoma = tested on: SK-MEL-28 melanoma
DU-145 prostate = tested on: DU-145 prostate
NCI-H522 lung = tested on: NCI-H522 lung
U251 CNS = tested on: U251 CNS
MOLT-4 leukemia = tested on: MOLT-4 leukemia
HL-60(TB) leukemia = tested on: HL-60(TB) leukemia
NCI-H23 lung = tested on: NCI-H23 lung
K-562 leukemia = tested on: K-562 leukemia
HCT-15 colon = tested on: HCT-15 colon
SF-295 CNS = tested on: SF-295 CNS
UACC-257 melanoma = tested on: UACC-257 melanoma
RXF 393 renal = tested on: RXF 393 renal
CAKI-1 renal = tested on: CAKI-1 renal
NCI-H460 lung = tested on: NCI-H460 lung
SNB-19 CNS = tested on: SNB-19 CNS
SR leukemia = tested on: SR leukemia
HOP-62 NSCLC = tested on: HOP-62 NSCLC
SF-539 CNS = tested on: SF-539 CNS
EKVX NSCLC = tested on: EKVX NSCLC
HCT-116 colon = tested on: HCT-116 colon
A549 NSCLC = tested on: A549 NSCLC
HS 578T breast = tested on: HS 578T breast
CCRF-CEM leukemia = tested on: CCRF-CEM leukemia
OVCAR-5 ovarian = tested on: OVCAR-5 ovarian
SN12C renal = tested on: SN12C renal
LOX IMVI melanoma = tested on: LOX IMVI melanoma
NCI-H226 lung = tested on: NCI-H226 lung
SW-620 colon = tested on: SW-620 colon
SNB-75 CNS = tested on: SNB-75 CNS

C=CCNCCN1C(=O)c2ccc3c4c(ccc(c24)C1=O)C(=O)N(CCNCC=C)C3=O
GI50 (SK-MEL-2 melanoma): 891 nM | TGI (SK-MEL-2 melanoma): 1740 nM | GI50 (UO-31 renal): 716 nM | TGI (UO-31 renal): 1690 nM | GI50 (A498 renal): 1140 nM | TGI (A498 renal): 3570 nM | GI50 (HOP-92 NSCLC): 1810 nM | TGI (HOP-92 NSCLC): 5560 nM | GI50 (IGROV1 ovarian): 504 nM | TGI (IGROV1 ovarian): 1670 nM | GI50 (NCI/ADR-RES ovarian): 995 nM | TGI (NCI/ADR-RES ovarian): 5290 nM | GI50 (HCC-2998 colon): 766 nM | TGI (HCC-2998 colon): 1550 nM | GI50 (BT-549 breast): 2910 nM | TGI (BT-549 breast): 10200 nM | GI50 (PC-3 prostate): 1340 nM | TGI (PC-3 prostate): 16600 nM | GI50 (SK-MEL-5 melanoma): 584 nM | TGI (SK-MEL-5 melanoma): 1200 nM | GI50 (MDA-MB-231 breast): 1260 nM | TGI (MDA-MB-231 breast): 4710 nM | GI50 (MALME-3M melanoma): 343 nM | TGI (MALME-3M melanoma): 996 nM | GI50 (SF-268 CNS): 753 nM | TGI (SF-268 CNS): 3540 nM | GI50 (UACC-62 melanoma): 895 nM | TGI (UACC-62 melanoma): 1680 nM | GI50 (786-0 renal): 1110 nM | TGI (786-0 renal): 2800 nM | GI50 (RPMI-8226 leukemia): 953 nM | TGI (RPMI-8226 leukemia): 4230 nM | GI50 (KM12 colon): 590 nM | TGI (KM12 colon): 1820 nM | GI50 (MDA-MB-435): 745 nM | TGI (MDA-MB-435): 1700 nM | GI50 (OVCAR-4 ovarian): 315 nM | TGI (OVCAR-4 ovarian): 1000 nM | GI50 (TK-10 renal): 1110 nM | TGI (TK-10 renal): 3430 nM | GI50 (OVCAR-8 ovarian): 421 nM | TGI (OVCAR-8 ovarian): 4000 nM | GI50 (MCF7 breast): 225 nM | TGI (MCF7 breast): 983 nM | GI50 (HT29 colon): 193 nM | TGI (HT29 colon): 769 nM | GI50 (SK-OV-3 ovarian): 1050 nM | TGI (SK-OV-3 ovarian): 2800 nM | GI50 (T-47D breast): 1200 nM | TGI (T-47D breast): 2650 nM | GI50 (COLO 205 colon): 160 nM | TGI (COLO 205 colon): 407 nM | GI50 (M14 melanoma): 918 nM | TGI (M14 melanoma): 1800 nM | GI50 (ACHN renal): 407 nM | TGI (ACHN renal): 2520 nM | GI50 (OVCAR-3 ovarian): 990 nM | TGI (OVCAR-3 ovarian): 3270 nM | GI50 (SK-MEL-28 melanoma): 1180 nM | TGI (SK-MEL-28 melanoma): 2680 nM | GI50 (DU-145 prostate): 663 nM | TGI (DU-145 prostate): 1360 nM | GI50 (NCI-H522 lung): 616 nM | TGI (NCI-H522 lung): 1540 nM | GI50 (U251 CNS): 526 nM | TGI (U251 CNS): 1260 nM | GI50 (MOLT-4 leukemia): 427 nM | TGI (MOLT-4 leukemia): 1630 nM | GI50 (HL-60(TB) leukemia): 860 nM | TGI (HL-60(TB) leukemia): 2210 nM | GI50 (NCI-H23 lung): 938 nM | TGI (NCI-H23 lung): 2100 nM | GI50 (K-562 leukemia): 534 nM | TGI (K-562 leukemia): 3240 nM | GI50 (HCT-15 colon): 457 nM | TGI (HCT-15 colon): 1660 nM | GI50 (SF-295 CNS): 397 nM | TGI (SF-295 CNS): 1280 nM | GI50 (UACC-257 melanoma): 786 nM | TGI (UACC-257 melanoma): 1490 nM | GI50 (RXF 393 renal): 696 nM | TGI (RXF 393 renal): 1480 nM | GI50 (CAKI-1 renal): 630 nM | TGI (CAKI-1 renal): 1840 nM | GI50 (NCI-H460 lung): 258 nM | TGI (NCI-H460 lung): 1730 nM | GI50 (SNB-19 CNS): 650 nM | TGI (SNB-19 CNS): 1350 nM | GI50 (SR leukemia): 811 nM | TGI (SR leukemia): 2920 nM | GI50 (HOP-62 NSCLC): 712 nM | TGI (HOP-62 NSCLC): 2700 nM | GI50 (SF-539 CNS): 847 nM | TGI (SF-539 CNS): 1960 nM | GI50 (EKVX NSCLC): 557 nM | TGI (EKVX NSCLC): 1510 nM | GI50 (HCT-116 colon): 500 nM | TGI (HCT-116 colon): 50000 nM | GI50 (A549 NSCLC): 418 nM | TGI (A549 NSCLC): 1670 nM | GI50 (HS 578T breast): 1760 nM | TGI (HS 578T breast): 8710 nM | GI50 (CCRF-CEM leukemia): 708 nM | TGI (CCRF-CEM leukemia): 3440 nM | GI50 (OVCAR-5 ovarian): 1040 nM | TGI (OVCAR-5 ovarian): 3090 nM | GI50 (SN12C renal): 489 nM | TGI (SN12C renal): 1260 nM | GI50 (LOX IMVI melanoma): 728 nM | TGI (LOX IMVI melanoma): 1770 nM | GI50 (NCI-H226 lung): 493 nM | TGI (NCI-H226 lung): 1460 nM | GI50 (SW-620 colon): 402 nM | TGI (SW-620 colon): 1630 nM | GI50 (SNB-75 CNS): 874 nM | TGI (SNB-75 CNS): 1670 nM
